# Experimental data published in paper PMC7546004, “Targeting BCL10 by small peptides for the treatment of B cell lymphoma” (Theranostics, 2020).
# Square brackets hold non-standard residues; d marks the D form. Peptide text beside a SMILES is read from it.
# Key:
# HBL1 cells = format: cell-based
# Text: (§1) GraphPad Prism software was used to determine GI50 values.
# DLBCL cell lines = format: cell-based; conditions: Figure 6D and Figure S7D
# Text: as §1
# TMD8 and SU-DHL4 cells = test: Apoptosis (annexin V / PI staining); format: cell-based; conditions: annexin V+/PI- plus annexin V+/PI+, 24 h; two independent experiments
# Method: ([…]); shBcl10 ([…] TGT […]). Lentivirus production using […]
# selected with puromycin (Invitrogen, A1113803) for 2 weeks. Log phase growing cells were seeded […]
# The number cells were measured by flow […]
# Cells were harvested and RNA was extracted and quantified. Synthesis of cDNA was performed […]
# QuantStudio 6 Flex (Applied Biosystems). RNA was normalized by β-Actin or GAPDH mRNA. The following quantitative PCR primers were used: […]
# hGAPDH-F: 5′-[…] T […]- 3’ […]
# hGAPDH-R: 5’-TACT T TAT […]-3’ […]
# hActin- F: 5’-[…]-3’ […]
# hActin- R: 5’-TC A […]-3’ […]
# hIL10- F: 5’-GGT […] TGTCTGA-3’ […]
# hIL10- R: 5’-AGGGAGT […]-3’ […]
# hIL6-R: 5’- […]-3 ’. […]
# hBcl10-F: 5’-[…] TAGAAA-3’ […]
# hBcl10-R: 5’-[…] T-3’ […]
# wa sh e d and lysed with RIPA buffer. Biotinylated BCL10 -P4 in cells were determined by immunoblotting with Streptavidin (Cell signaling, cat. #3999S).
# Apoptosis and cell cycle:
# 1:100 dilution for 15 min at room temperature in the dark. Signals from FL1 and FL3 channels were collected by MACSQuant analyzer and data were analyzed using FloJo (Ashland, OR). […]
# For cell cycle analysis, cells were washed twice with cold PBS and fixed in 70% ethanol overnight at 4°C. […] DNA content was measured by BD LSRII flow cytometer and data were analyzed in FloJo. […]
# All extracts were treated with DNase in column during RNA purification. RNA integrity was determined on an Agilent 2100 Bioanalyzer (Agilent Technologies, SantaClara, CA). […]
# [1] = Tolerability in xenograft mice (body weight, histology of major organs); format: in vivo, NCG mice
# Method: (§2) Mouse xenograft experiments:
# (§3) Six-week-old female NOD prkdc-/- IL-2Rg-/- (NCG) mice purchased from GemPharmatech Co., Lt d we re raised in a SPF- level Laboratory Animal Room. Low -passage 5x106 human TMD8, SU-DHL- 6 or 1x10^7 OCl-LY1 cells at 100μl were premixed with 100μl Matrigel (Corning Biocoat, cat. # 354234) and inoculated subcutaneously into the right flank of mice. When tumors reached an average size of 150 mm3, mice were randomly assigned into treatment groups (10 mg /kg DRI-BCL10- P4) or control groups (5 mg /kg BCL10- Ctl). Peptides were reconstituted in 5% DMSO/PBS and administered by i.v. injection. Tumor volumes were monitored by a digital caliper every other day and calculated using the formula: (smallest diameter2 x largest diameter)/2. Mice were weighed every day and sacrificed at the end of the treatment. T umors and main organs were harvested and we i ghte d at the moment of death. All animal experiments were approved by the Animal Institute Committee of Changhai Hospital, the Second Military Medical University.
# (§4) Immunohistochemistry (IHC)
# (§5) Formalin-fixed paraffin -embedded tumor xenografts were sectioned, dewaxed and submitted to antigen retrieval. The anti- Ki67 (proteintech, 27309-1) antibody was used at a 1:500 dilution.
# (§6) Biotin-conjugated secondary antibodies (MXB biotechnologies, KIT-9710) were used. […]
# [2] = tested on: SU-DHL6 cell xenograft tumors; test: Mouse xenograft model; format: in vivo, NCG mice; conditions: DRI-BCL10-P4 10 mg/kg Q.d. or BCL10-Ctl 5 mg/kg Q.d., i.v.; n=8; p=0.049, Mann-Whitney U test
# Method: as §2, §3, §4, §5, §6
# BCL10 = target: T1, BCL10 (Homo sapiens, UniProt O95999); test: In vitro BCL10 filamentation assay (negative-stain electron microscopy); format: biochemical; conditions: MBP-BCL10 and peptide premixed at 1:1 or 1:2 molar ratio, RT 30 min, then TEV cleavage
# T1 sequence (O95999 1-233): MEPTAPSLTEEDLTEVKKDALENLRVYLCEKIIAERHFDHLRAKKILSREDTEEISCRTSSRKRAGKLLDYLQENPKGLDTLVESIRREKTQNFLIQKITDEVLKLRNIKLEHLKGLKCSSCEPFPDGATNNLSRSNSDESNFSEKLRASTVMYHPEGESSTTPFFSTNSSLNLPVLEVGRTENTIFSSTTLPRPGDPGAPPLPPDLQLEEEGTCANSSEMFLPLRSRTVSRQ
# Method: MBP-BCL10 was expressed and purified as previously described. MBP-BCL10 and BCL10 peptide inhibitors were premixed at a 1:1 or 1:2 molar ratio at RT for 30 minutes before adding TEV to cleave the MBP tag. 5 μL of reaction mixture was applied to copper grids (Beijing Zhongjingkeyi Technology Co., Cat. No. BZ10024a), where it remained for 1 minute and was then negatively stained with 3% uranyl acetate for 1 minute, air-dried and imaged with a JEM-1230 TEM at 100 keV.
structure (smiles),measurement,setting,value
CC[C@@H](C)[C@@H](NC(=O)[C@@H](CCCCN)NC(=O)[C@H](NC(=O)[C@@H](Cc1c[nH]c2ccccc12)NC(=O)[C@@H](Cc1ccccc1)NC(=O)[C@@H](CCC(N)=O)NC(=O)[C@@H](CC(N)=O)NC(=O)[C@@H](CCCNC(=N)N)NC(=O)[C@@H](CCCNC(=N)N)NC(=O)[C@@H](CCSC)NC(=O)[C@@H](CCCCN)NC(=O)[C@@H](Cc1c[nH]c2ccccc12)NC(=O)[C@@H](CCCCN)NC(=O)[C@@H](CCCCN)NC(=O)[C@@H](CCCNC(=N)N)NC(=O)[C@H](NC(=O)[C@@H](CO)NC(=O)[C@@H](CO)NC(=O)[C@@H](CCCNC(=N)N)NC(=O)[C@@H](CCCCN)NC(=O)[C@@H](CCCNC(=N)N)NC(=O)[C@@H](C)NC(=O)CNC(=O)[C@@H](CCCCN)NC(=O)[C@@H](CC(C)C)NC(=O)[C@@H](CC(C)C)NC(=O)[C@@H](CC(=O)O)NC(=O)[C@@H](Cc1ccc(O)cc1)NC(=O)[C@@H](CC(C)C)NC(=O)[C@@H](CCC(N)=O)NC(=O)[C@H](N)CCC(=O)O)[C@H](C)O)[C@H](C)CC)C(=O)N[C@H](CCC(N)=O)C(=O)N[C@H](CCCNC(=N)N)C(=O)N[C@H](CC(=O)O)C(=O)O [DRI-BCL10-P4] (H-[dE][dQ][dL][dY][dD][dL][dL][dK]G[dA][dR][dK][dR][dS][dS][dT][dR][dK][dK][dW][dK][dM][dR][dR][dN][dQ][dF][dW][dI][dK][dI][dQ][dR][dD]-OH),GI50,HBL1 cells,6.78 ± 3.7 µM
same,"growth of CB-SMOC-dependent cell lines (HBL1, TMD8 and SU-DHL4 cells)",DLBCL cell lines,selectively suppressed the growth of CB-SMOC-dependent cell lines
same,apoptosis of TMD8 and SU-DHL4 cells,TMD8 and SU-DHL4 cells,induced apoptosis
same,adverse effects in the mice (body weight),"[1]; 10 mg/kg Q.d., i.v., Figure 7C-F",without inducing notable adverse effects
same,histological examination of the major organs (H&E),"[1]; 10 mg/kg daily for 11 days, Figure S8D",did not result in discernible damage to these organs
same,growth of SU-DHL6 cell xenograft tumors,[2],significantly inhibited the growth
same,BCL10 filament formation (EM),BCL10,effectively disrupted BCL10 filament formation
